The values below come from ChEMBL document CHEMBL1139594, “Azinomycin inspired bisepoxides: influence of linker structure on in vitro cytotoxicity and DNA interstrand cross-linking” (2005).

Holding throughout (type): functional
Assay [1] is described as follows: Mean cytotoxicity towards NCI panel of 60 human cancer cell lines. To be noted: read-out: LC50 (the source's name).
Assay [2] is described as follows: Growth inhibitory concentration against NCI panel of 60 human cancer cell lines.
The nature of assay [3]: Total growth inhibition of NCI panel of 60 human cancer cell lines.

In the case of `COc1cc(C(=O)O[C@H](C(=O)NCCCNC(=O)[C@@H](OC(=O)c2cc(OC)cc3c(C)cccc23)[C@]2(C)CO2)[C@]2(C)CO2)c2cccc(C)c2c1`, in assay [1], the CC50 was found to be 3.2 µM. This molecule also came in with a GI50 in assay [2] of 0.031 µM. In addition, the TGI in assay [3] came to 0.21 µM.

For `COc1cc(C(=O)O[C@H](C(=O)NCCCCNC(=O)[C@@H](OC(=O)c2cc(OC)cc3c(C)cccc23)[C@]2(C)CO2)[C@]2(C)CO2)c2cccc(C)c2c1`, in assay [1], the CC50 turned out to be 14.8 µM. The molecule further returned a GI50 in assay [2] of 0.053 µM. The molecule also came in with a TGI in assay [3] of 0.55 µM.

Take `COc1cc(C(=O)O[C@H](C(=O)NCCNC(=O)[C@@H](OC(=O)c2cc(OC)cc3c(C)cccc23)[C@]2(C)CO2)[C@]2(C)CO2)c2cccc(C)c2c1`: the CC50 in assay [1] amounted to 62 µM. This molecule also registered a concentration for 50% growth inhibition (GI50) in assay [2] of 0.072 µM. This molecule displayed a concentration for total growth inhibition (TGI) in assay [3] of 2.4 µM.

Consider `COc1cc(C(=O)O[C@H](C(=O)NCCN(C)CCNC(=O)[C@@H](OC(=O)c2cc(OC)cc3c(C)cccc23)[C@]2(C)CO2)[C@]2(C)CO2)c2cccc(C)c2c1`, for which the CC50 in assay [1] came out at 14.4 µM. The molecule further returned a GI50 in assay [2] of 0.028 µM. In assay [3], this molecule displayed a TGI of 0.35 µM.

As to `COc1cc(C(=O)O[C@H](C(=O)NCCCCCNC(=O)[C@@H](OC(=O)c2cc(OC)cc3c(C)cccc23)[C@]2(C)CO2)[C@]2(C)CO2)c2cccc(C)c2c1`, the CC50 in assay [1] is 50 µM. This molecule also had a 50% growth inhibitory concentration (GI50) in assay [2] of 0.178 µM. In assay [3], this molecule had a TGI of 3.4 µM.

`COc1cc(C(=O)O[C@H](C(N)=O)[C@]2(C)CO2)c2cccc(C)c2c1`: the CC50 in assay [1] is 33 µM. In assay [2], this molecule showed a concentration for 50% growth inhibition (GI50) of 0.214 µM. Moreover, the TGI in assay [3] amounted to 2 µM.

One may read the GI50 as the concentration at which growth is held to half of that of the control. Low readings indicate more potent growth inhibition, high ones less potent growth inhibition. By TGI is commonly meant the concentration giving total growth inhibition. A high value points to lower sensitivity of the cells.
